Patent US5459270A, “Azacyclic compounds, processes for their preparation and pharmaceutical compositions containing them” (Merck Sharp & Dohme Limited, priority 1991, dated 1995)
Several values for one entry are separate records, joined by “and”; a condition that tells them apart may be missing. Equal values may be shown once. Where a name gives a salt, the structure may show the parent alone.

Each molecule was assayed against human neurokinin-1-receptor (NK1R) (Homo sapiens, UniProt P25103) (assay: biochemical). Conditions: 1 h, read-out: % @ 300 nM (in column IC50 @ NKIR).
human neurokinin-1-receptor (NK1R), sequence (P25103 whole entry): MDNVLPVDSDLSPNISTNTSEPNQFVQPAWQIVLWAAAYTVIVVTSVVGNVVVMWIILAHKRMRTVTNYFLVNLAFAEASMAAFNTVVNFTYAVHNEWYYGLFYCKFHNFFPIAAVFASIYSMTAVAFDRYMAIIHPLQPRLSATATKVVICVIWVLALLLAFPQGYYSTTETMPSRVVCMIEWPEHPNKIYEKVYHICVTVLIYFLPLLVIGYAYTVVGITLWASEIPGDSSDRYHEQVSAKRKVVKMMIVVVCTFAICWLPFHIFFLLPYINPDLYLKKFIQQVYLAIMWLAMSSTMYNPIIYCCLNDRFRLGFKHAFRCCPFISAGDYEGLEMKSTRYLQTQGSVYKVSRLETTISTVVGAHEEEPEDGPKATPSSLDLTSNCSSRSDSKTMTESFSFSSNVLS
Type: binding
Protocol: To express the cloned human neurokinin-1-receptor (NK1R) transiently in COS, the cDNA for the human NK1R was cloned into the expression vector pCDM9 which was derived from pCDM8 (INVITROGEN) by inserting the ampicillin resistance gene (nucleotide 1973 to 2964 from BLUESCRIPT SK+ (trademark, […], La Jolla, Calif., USA)) into the Sac II site. Transfection of 20 ug of the plasmid DNA into 10 million COS cells was achieved by electroporation in 800 μl of transfection buffer (135 mM NaCl, 1.2 mM CaCl2, 1.2 mM MgCl2, 2.4 mM K2 HPO4, 0.6 mM KH2 PO4, 10 mM glucose, 10 mM N-2-hydroxyethyl-piperazine-N'-2-ethane sulphonic acid (HEPES) pH 7.4) at 260 V and 950 μF using the IBI GENEZAPPER (trademark IBI, New Haven, Conn., USA). The cells were incubated in 10% fetal calf serum, 2 mM glutamine, 100 U/ml penicillin-streptomycin, and 90% DMEM media (GIBCO, Grand Island, N.Y., USA) in 5% CO2 at 37° C. for three days before the binding assay.
To establish a stable cell line expressing cloned human NK1R, the cDNA was subcloned into the vector pRcCMV (INVITROGEN). Transfection of 20 μg of the plasmid DNA into CHO cells was achieved by electroporation in 800 μl of transfection buffer supplemented with 0.625 mg/ml Herring sperm DNA at 300 V and 950 μF using the IBI GENEZAPPER (IBI). The transfected cells were incubated in CHO media [10% fetal calf serum, 100 U/ml penicillin-streptomycin, 2 mM glutamine, 1/500 hypoxanthine-thymidine (ATCC), 90% IMDM media (JRH BIOSCIENCES, Lenexa, Kans., USA), 0.7 mg/ml G418 (GIBCO)] in 5% CO2 at 37° C. until colonies were visible. Each colony was separated and propagated. The cell clone with the highest number of human NK1R was selected for subsequent applications such as drug screening.
The binding assay of human NK1R expressed in either COS or CHO cells is based on the use of ^125 I-substance P (^125 I-SP, from DU PONT, Boston, Mass.) as a radioactively labeled ligand which competes with unlabeled substance P or any other ligand for binding to the human NK1R. […] The tubes were incubated at 4° C. or at room temperature for 1 hour with gentle shaking. The bound radioactivity was separated from unbound radioactivity by GF/C filter (BRANDEL, Gaithersburg, Md.) which was pre-wetted with 0.1% polyethylenimine. The filter was washed with 3 ml of wash buffer (50 mM Tris pH 7.5, 5 mM MnCl2, 50 mM NaCl) three times and its radioactivity was determined by gamma counter.

| SMILES | inhibition at 0.3 µM [%] |
| --- | --- |
| COc1ccc([N+](=O)[O-])cc1CO[C@H]1CCCN[C@H]1c1ccccc1 (relative stereo) [Example 45, cis-3-((2-Methoxy-5-nitrophenyl)methyloxy)-2-phenylpiperidine hydrochloride salt] | 42 |
| N#Cc1cccc(CO[C@H]2CCCN[C@H]2c2ccccc2)c1 (relative stereo) [Example 53, cis-3((3-cyanophenyl)methyloxy)-2-phenylpiperidine hydrochloride salt] | 40 |

Same assay, conditions: 1 h, read-out: % @ 300 nM (in column IC50 @ NKIR); 300 nM; human NK1R in COS or CHO cells, 125I-substance P

| inhibition at 0.3 µM [%] | SMILES |
| --- | --- |
| 41 | FC(F)(F)c1cc(CO[C@H]2CCCN[C@H]2c2ccccn2)cc(C(F)(F)F)c1 (relative stereo) [Example 26, cis-3-((3,5-Bis(trifluoromethyl)phenyl)methyloxy)-2-pyridyl piperidine dihydrochloride salt] |
| 45 | FC(F)(F)c1cc(CO[C@H]2CCCN(Cc3cc(C(F)(F)F)cc(C(F)(F)F)c3)[C@H]2c2ccccc2)cc(C(F)(F)F)c1 (relative stereo) [Example 42] |

Same assay, conditions: 1 h, read-out: % @ 1 μM (in column IC50 @ NKIR)

| SMILES | inhibition at 1 µM [%] |
| --- | --- |
| c1ccc(CO[C@H]2CCCN[C@H]2c2ccccc2)cc1 (relative stereo) [Example 34, cis-2-Phenyl-3-(phenylmethyloxy)piperidine oxalate salt] | 53 |
| Cc1cc(C)cc(CO[C@H]2CN(C)[C@H]2c2ccccc2)c1 (relative stereo) [Example 51, cis-3-((3,5-Dimethylphenyl)methyloxy)-1-methyl-2-phenyl azetidine oxalate salt] | 40 |

Same assay, conditions: 1 h, read-out: % @ 1 μM (in column IC50 @ NKIR); 1 μM; human NK1R in COS or CHO cells, 125I-substance P

| inhibition at 1 µM [%] | SMILES |
| --- | --- |
| 46 | Cc1cc(C)cc(CO[C@@H]2CCCN[C@H]2c2ccccc2)c1 (relative stereo) [Example 12, trans-((3.5-Dimethylphenyl)methyloxy)-2-phenyl piperidine hydrochloride salt] |

Same assay, conditions: displacement of 125I-substance P; human NK1R in COS or CHO cells; read-out: IC50 @ NKIR

| IC50 | SMILES |
| --- | --- |
| 14 nM | Cc1cc(C)cc(CO[C@H]2CCN(C)[C@H]2C(c2ccccc2)c2ccccc2)c1 (relative stereo) [Example 1, cis 2-(Diphenylmethyl)-3-(3,5-dimethylbenzyloxy)-1-methylpyrrolidine] |
| < 3 nM | Cc1cc(C)cc(CO[C@H]2CCCN[C@H]2c2ccccc2)c1 (relative stereo) [Example 2, cis-3-((3,5-Dimethylphenyl)methyloxy)-2-phenylpiperidine hydrochloride salt] |
| 300 nM | FC(F)(F)c1cc(CO[C@@H]2CCCN[C@H]2c2ccccc2)cc(C(F)(F)F)c1 (relative stereo) [Example 13, trans-3-((3,5-Bis(trifluoromethyl)phenyl)methyloxy)-2-phenyl piperidine hydrochloride salt] |
| 40 nM | FC(F)(F)c1cc(CO[C@H]2CCCN[C@H]2c2ccccc2Cl)cc(C(F)(F)F)c1 (relative stereo) [Example 21, cis-3-((3,5-Bis(trifluoromethyl)phenyl)methyloxy)-2-(2-chlorophenyl)piperidine] |
| 5 nM | FC(F)(F)c1cc(CO[C@H]2CCCN[C@H]2c2cccc(Cl)c2)cc(C(F)(F)F)c1 (relative stereo) [Example 22, cis-3-((3,5-Bis(trifluoromethyl)phenyl)methyloxy)-2-(3-chlorophenyl)piperidine hydrochloride salt] |
| 35 nM | FC(F)(F)c1cc(CO[C@H]2CCCN[C@H]2c2ccc(Cl)cc2)cc(C(F)(F)F)c1 (relative stereo) [Example 23, cis-3-((3,5-Bis(trifluoromethyl)phenyl)methyloxy)-2-(4-chlorophenyl)piperidine hydrochloride salt] |
| 15 nM | Cc1ccc([C@@H]2NCCC[C@@H]2OCc2cc(C(F)(F)F)cc(C(F)(F)F)c2)cc1 (relative stereo) [Example 24, cis-3-(3,5,-Bis(trifluoromethyl)phenyl)methyloxy)-2-(4-methylphenyl)piperidine hydrochloride salt] |
| 70 nM | FC(F)(F)c1cc(CO[C@H]2CCCN[C@H]2c2cccs2)cc(C(F)(F)F)c1 (relative stereo) [Example 25, cis-3-((3,5-Bis(trifluoromethyl)phenyl)methyloxy)-2-thienyl piperidine hydrochloride salt] |
| 160 nM | COc1ccc(CN2C(=O)CC[C@H](OCc3cc(C(F)(F)F)cc(C(F)(F)F)c3)[C@@H]2c2ccccc2)cc1 (relative stereo) [Example 27, cis-3-((3,5-Bis(trifluoromethyl)phenyl)methyloxy)-6-keto1-(4-methoxybenzyl)-2-phenyl piperidine] |
| 15 nM | O=C1CC[C@H](OCc2cc(C(F)(F)F)cc(C(F)(F)F)c2)[C@H](c2ccccc2)N1 (relative stereo) [Example 28, cis-3-((3,5-Bis(trifluoromethyl)phenyl)methyloxy)-6-keto-2-phenyl piperidine] |
| 40 nM | COC(=O)CCN1CCC[C@H](OCc2cc(C(F)(F)F)cc(C(F)(F)F)c2)[C@@H]1c1ccccc1 (relative stereo) [Example 29, cis-3-((3,5-Bis(trifluoromethyl)phenyl)methyloxy)-1-(2-carbomethoxy)ethyl-2-phenylpiperidine] |
| 100 nM | COC(=O)CCCN1CCC[C@H](OCc2cc(C(F)(F)F)cc(C(F)(F)F)c2)[C@@H]1c1ccccc1 (relative stereo) [Example 31, cis-3-((3,5Bis(trifluoromethyl)phenyl)methyloxy)-1-(3-carbomethoxy)propyl-2-phenylpiperidine] |
| 100 nM | CC(C)(C)c1cc(CO[C@H]2CCCN[C@H]2c2ccccc2)cc(C(C)(C)C)c1 (relative stereo) [Example 35, cis-3-((3,5.-Di-t-butylphenyl)methyloxy)-2-phenylpiperidine oxalate salt] |
| 150 nM | NC(=O)C(=O)N1CCC[C@H](OCc2cc(C(F)(F)F)cc(C(F)(F)F)c2)[C@@H]1c1ccccc1 (relative stereo) [Example 38] |
| 0.9 nM | NC(CN1CCC[C@H](OCc2cc(C(F)(F)F)cc(C(F)(F)F)c2)[C@@H]1c1ccccc1)=NO (relative stereo) [Example 39] |
| 15 nM | N#CCN1CCC[C@H](OCc2cc(C(F)(F)F)cc(C(F)(F)F)c2)[C@@H]1c1ccccc1 (relative stereo) [Example 40, cis-3 ((3,5Bis(trifluoromethyl)phenyl)methyloxy)-1-cyanomethyl-2-phenylpiperidinium hydrochloride] |
| 2 nM | Clc1cc(Cl)cc(CO[C@H]2CCCN[C@H]2c2ccccc2)c1 (relative stereo) [Example 47, cis-3-((3,5-Dichlorophenyl)methyloxy)-2-phenylpiperidine hydrochloride salt] |
| 0.6 nM | COC(=O)C(C)N1CCCC(OCc2cc(C(F)(F)F)cc(C(F)(F)F)c2)C1c1ccccc1 (single isomer, unassigned) [Example 18] |
| 0.9 nM | CC(C(N)=O)N1CCC[C@H](OCc2cc(C(F)(F)F)cc(C(F)(F)F)c2)[C@@H]1c1ccccc1 (single isomer, unassigned) [Example 19, hydrochloride] |
| 1.4 nM | CCN(CC)C(=O)CN1CCCC(OCc2cc(C(F)(F)F)cc(C(F)(F)F)c2)C1c1ccccc1 (single isomer, unassigned) [Example 43, cis-3-((3,5-Bis(trifluoromethyl)phenyl)methyloxy-1-(N,N-diethylcarboxamido)methyl-2-phenylpiperidinium hydrochloride] |

| SMILES | IC50 |
| --- | --- |
| FC(F)(F)c1cc(CO[C@H]2CCCN[C@H]2c2ccccc2)cc(C(F)(F)F)c1 (relative stereo) [Example 4, cis-3-((3,5-Bis(trifluoromethyl)phenyl)methyloxy)-2-phenylpiperidine hydrochloride salt] | 2 nM and 1.4 nM |
| FC(F)(F)c1cc(CO[C@H]2CCCN[C@H]2c2ccccc2)cc(C(F)(F)F)c1 [Example 5, (+)-cis-3((3,5-Bis(trifluoromethyl)phenyl)methyloxy)-2-phenylpiperidine hydrochloride salt] | 1 nM |
